15 molecules from patent US11091478B2 (Fochon Pharmaceuticals, Ltd., priority 2017, dated 2021) can be followed below.

One assay has as its system DOHH2 cells. As to the kind of experiment: Cell proliferation assay (MTS), DOHH2 cells, 120 h. It is filed as cell-based. Conditions: Homo sapiens, DOHH-2, 120 h. Summed up: (§1)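 Proliferation was scored by MTS (2 h, then SDS stop, A490 with 650 nm reference) and IC50 derived. Compound ran at nine final concentrations from 1.5 to 10000 nM. DOHH2 were incubated 120 h and RS4;11 72 h, both plated at 5000 cells/well in RPMI-1640 plus 10% FBS.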

A further assay relates to RS4;11 cells. As to the kind of experiment: Cell proliferation assay (MTS), RS4;11 cells, 72 h. It is filed as cell-based. Conditions: Homo sapiens, RS4-11, 72 h. Summed up:
as §1

pIC50: −log10 of the molar value.

The term pIC50 denotes the IC50 on a negative log10 scale, so that one unit is a factor of ten. High values mean a low IC50, low ones a high IC50. Consider `CN1CCN(CC[C@@H]2CSc3cc(S(=O)(=O)NC(=O)c4ccc(N5CCN(CC6=C(c7ccc(Cl)cc7)CC(C)(C)CC6)CC5)cc4Oc4cnc5[nH]ccc5c4)cc([N+](=O)[O-])c3N2)CC1` [Example 3-14, (R)-2-((1H-pyrrolo[2,3-b]pyridin-5-yl)oxy)-4-(4-((4′-chloro-5,5-dimethyl-3,4,5,6-tetra-hydro-[1,1′-biphenyl]-2-yl)methyl)piperazin-1-yl)-N-((3-(2-(4-methylpiperazin-1-yl)ethyl)-5-nitro-3,4-dihydro-2H-benzo[b][1,4]thiazin-7-yl)sulfonyl)benzamide], for which the pIC50 in the assay on DOHH2 cells was 8.05; with RS4;11 cells, 8.40.

As to `CC1(C)CCC(CN2CCN(c3ccc(C(=O)NS(=O)(=O)c4cc5c(c([N+](=O)[O-])c4)N[C@@H](C4CCC(C)(O)CC4)CO5)c(Oc4cnc5[nH]ccc5c4)c3)CC2)=C(c2ccc(Cl)cc2)C1` (stereo partly drawn) [Example 2-215, (S)-2-((1H-pyrrolo[2,3-b]pyridin-5-yl)oxy)-4-(4-((4′-chloro-5,5-dimethyl-3,4,5,6-tetra-hydro-[1,1′-biphenyl]-2-yl)methyl)piperazin-1-yl)-N-((3-(4-hydroxy-4-methylcyclohex-yl)-5-nitro-3,4-dihydro-2H-benzo[b][1,4]oxazin-7-yl)sulfonyl)benzamide], the negative-log IC50 (pIC50) with DOHH2 cells was 7.19; in the assay on RS4;11 cells, 8.52.

For the molecule `CC1(C)CCC(CN2CCN(c3ccc(C(=O)NS(=O)(=O)c4cc5c(c([N+](=O)[O-])c4)N[C@@H](CN4CCC(C)(O)CC4)CO5)c(Oc4cnc5[nH]ccc5c4)c3)CC2)=C(c2ccc(Cl)cc2)C1` [Example 2-19, (S)-2-((1H-pyrrolo[2,3-b]pyridin-5-yl)oxy)-4-(4-((4′-chloro-5,5-dimethyl-3,4,5,6-tetra-hydro-[1,1′-biphenyl]-2-yl)methyl)piperazin-1-yl)-N-((3-((4-hydroxy-4-methylpiperidin-1-yl)methyl)-5-nitro-3,4-dihydro-2H-ben-zo[b][1,4]oxazin-7-yl)sulfonyl)benzamide], the results for the pIC50 in the assay with DOHH2 cells and in the assay with RS4;11 cells were 7.15 and 7.44, respectively.

With `CN1CCN(C[C@H]2CSc3cc(S(=O)(=O)NC(=O)c4ccc(N5CCN(CC6=C(c7ccc(Cl)cc7)CC(C)(C)CC6)CC5)cc4Oc4cnc5[nH]ccc5c4)cc([N+](=O)[O-])c3N2)CC1` [Example 3-9, (S)-2-((1H-pyrrolo[2,3-b]pyridin-5-yl)oxy)-4-(4-((4′-chloro-5,5-dimethyl-3,4,5,6-tetra-hydro-[1,1′-biphenyl]-2-yl)methyl)piperazin-1-yl)-N-((3-((4-methylpiperazin-1-yl)methyl)-5-nitro-3,4-dihydro-2H-benzo[b][1,4]thiazin-7-yl)sulfonyl)benzamide], the pIC50 with DOHH2 cells was 7.62; with RS4;11 cells, 7.89.

On to `COCC[C@@H]1CSc2cc(S(=O)(=O)NC(=O)c3ccc(N4CCN(CC5=C(c6ccc(Cl)cc6)CC(C)(C)CC5)CC4)cc3Oc3cnc4[nH]ccc4c3)cc([N+](=O)[O-])c2N1` [Example 3-12, (R)-2-((1H-pyrrolo[2,3-b]pyridin-5-yl)oxy)-4-(4-((4′-chloro-5,5-dimethyl-3,4,5,6-tetra-hydro-[1,1′-biphenyl]-2-yl)methyl)piperazin-1-yl)-N-((3-(2-methoxyethyl)-5-nitro-3,4-dihydro-2H-benzo[b][1,4]thiazin-7-yl)sulfonyl)benzamide], for which the results for the pIC50 in the assay on DOHH2 cells and in the assay with RS4;11 cells were 6.92 and 7.08, respectively.

In the case of `CC1(C)CCC(CN2CCN(c3ccc(C(=O)NS(=O)(=O)c4cc5c(c([N+](=O)[O-])c4)N[C@@H](CC4CCN(S(C)(=O)=O)CC4)CO5)c(Oc4cnc5[nH]ccc5c4)c3)CC2)=C(c2ccc(Cl)cc2)C1` [Example 2-196, (S)-2-((1H-pyrrolo[2,3-b]pyridin-5-yl)oxy)-4-(4-((4′-chloro-5,5-dimethyl-3,4,5,6-tetra-hydro-[1,1′-biphenyl]-2-yl)methyl)piperazin-1-yl)-N-((3-((1-(methysulfonyl)piperidin-4-yl)methyl)-5-nitro-3,4-dihydro-2H-benzo[b][1,4]oxazin-7-yl)sulfonyl)benzamide], the pIC50 in the assay with DOHH2 cells was 7.03; in the assay on RS4;11 cells, 8.22.

Turning to `C[C@H]1CN(CC[C@H]2COc3cc(S(=O)(=O)NC(=O)c4ccc(N5CCN(CC6=C(c7ccc(Cl)cc7)CC(C)(C)CC6)CC5)cc4Oc4cnc5[nH]ccc5c4)cc([N+](=O)[O-])c3N2)CCN1C` [Example 2-47, 2-((1H-pyrrolo[2,3-b]pyridin-5-yl)oxy)-4-(4-((4′-chloro-5,5-dimethyl-3,4,5,6-tetrahydro-[1,1′-biphenyl]-2-yl)methyl)piperazin-1-yl)-N-(((S)-3-(2-((S)-3,4-dimethylpiperazin-1-yl)ethyl)-5-nitro-3,4-dihydro-2H-benzo [b][1,4]oxazin-7-yl)sulfonyl)benzamide], the negative logarithm of the IC50 (pIC50) is 7.92 with DOHH2 cells and 7.66 with RS4;11 cells.

`C[C@H]1CN(C[C@H]2COc3cc(S(=O)(=O)NC(=O)c4ccc(N5CCN(CC6=C(c7ccc(Cl)cc7)CC(C)(C)CC6)CC5)cc4Oc4cnc5[nH]ccc5c4)cc([N+](=O)[O-])c3N2)CCN1C1COC1` [Example 2-30]: the figures for the pIC50 with DOHH2 cells and in the assay on RS4;11 cells were 8.10 and 9.00, respectively.

For `COC[C@H]1COc2cc(S(=O)(=O)NC(=O)c3ccc(N4CCN(CC5=C(c6ccc(Cl)cc6)CC(C)(C)CC5)CC4)cc3Oc3cnc4[nH]ccc4c3)cc([N+](=O)[O-])c2N1` [Example 2-116, (S)-2-((1H-pyrrolo[2,3-b]pyridin-5-yl)oxy)-4-(4-((4′-chloro-5,5-dimethyl-3,4,5,6-tetra-hydro-[1,1′-biphenyl]-2-yl)methyl)piperazin-1-yl)-N-((3-(methoxymethyl)-5-nitro-3,4-dihydro-2H-benzo[b][1,4]oxazin-7-yl)sulfonyl)benzamide], the values for the pIC50 with DOHH2 cells and in the assay with RS4;11 cells were 7.08 and 7.80, respectively.

In the case of `CC1(C)CCC(CN2CCN(c3ccc(C(=O)NS(=O)(=O)c4cc5c(c([N+](=O)[O-])c4)N[C@@H](COC(=O)N4CCOCC4)CO5)c(Oc4cnc5[nH]ccc5c4)c3)CC2)=C(c2ccc(Cl)cc2)C1` [Example 2-117, (R)-(7-(N-(2-((1H-pyrrolo[2,3-b]pyridin-5-yl)oxy)-4-(4-((4′-chloro-5,5-dimethyl-3,4,5,6-tetrahydro-[1,1′-biphenyl]-2-yl)methyl)piperazin-1-yl)benzoyl)sulfamoyl)-5-nitro-3,4-dihydro-2H-benzo[b][1,4]oxazin-3-yl)methyl morpholine-4-carboxylate], the negative logarithm of the IC50 (pIC50) with DOHH2 cells was 7.39; in the assay on RS4;11 cells, 7.36.

Turning to `C[C@@H]1CN(CC[C@@H]2COc3cc(S(=O)(=O)NC(=O)c4ccc(N5CCN(CC6=C(c7ccc(Cl)cc7)CC(C)(C)CC6)CC5)cc4Oc4cnc5[nH]ccc5c4)cc([N+](=O)[O-])c3N2)CCN1C` [Example 2-36, 2-((1H-pyrrolo[2,3-b]pyridin-5-yl)oxy)-4-(4-((4′-chloro-5,5-dimethyl-3,4,5,6-tetrahydro-[1,1′-biphenyl]-2-yl)methyl)piperazin-1-yl)-N-(((R)-3-(2-((R)-3,4-dimethylpiperazin-1-yl)ethyl)-5-nitro-3,4-dihydro-2H-benzo [b][1,4]oxazin-7-yl)sulfonyl)benzamide], the negative-log IC50 (pIC50) with DOHH2 cells is 7.48; with RS4;11 cells it was 8.15.

Turning to `C[C@@H]1COCCN1C[C@@H]1COc2cc(S(=O)(=O)NC(=O)c3ccc(N4CCN(CC5=C(c6ccc(Cl)cc6)CC(C)(C)CC5)CC4)cc3Oc3cnc4[nH]ccc4c3)cc([N+](=O)[O-])c2N1` [Example 2-81, 2-((1H-pyrrolo[2,3-b]pyridin-5-yl)oxy)-4-(4-((4′-chloro-5,5-dimethyl-3,4,5,6-tetra-hydro-[1,1′-biphenyl]-2-yl)methyl)piperazin-1-yl)-N-(((R)-3-(((R)-3-methylmorpholino)meth-yl)-5-nitro-3,4-dihydro-2H-benzo[b][1,4]oxazin-7-yl)sulfonyl)benzamide], the pIC50 in the assay with DOHH2 cells is 7.85; with RS4;11 cells, 8.52.

With `CC(=O)N1CCC(C[C@H]2COc3cc(S(=O)(=O)NC(=O)c4ccc(N5CCN(CC6=C(c7ccc(Cl)cc7)CC(C)(C)CC6)CC5)cc4Oc4cnc5[nH]ccc5c4)cc([N+](=O)[O-])c3N2)CC1` [Example 2-194, (S)-2-((1H-pyrrolo[2,3-b]pyridin-5-yl)oxy)-N-((3-((1-acetylpiperidin-4-yl)methyl)-5-nitro-3,4-dihydro-2H-benzo[b][1,4]oxazin-7-yl)sulfonyl)-4-(4-((4′-chloro-5,5-dimethyl-3,4,5,6-tetrahydro-[1,1′-biphenyl]-2-yl)meth-yl)piperazin-1-yl)benzamide], the pIC50 with DOHH2 cells was 7.13; with RS4;11 cells, 8.30.

As for `CC1(C)CCC(CN2CCN(c3ccc(C(=O)NS(=O)(=O)c4cc5c(c([N+](=O)[O-])c4)N[C@@H](CN4CCS(=O)(=O)CC4)CO5)c(Oc4cnc5[nH]ccc5c4)c3)CC2)=C(c2ccc(Cl)cc2)C1` [Example 2-121, (S)-2-((1H-pyrrolo[2,3-b]pyridin-5-yl)oxy)-4-(4-((4′-chloro-5,5-dimethyl-3,4,5,6-tetra-hydro-[1,1′-biphenyl]-2-yl)methyl)piperazin-1-yl)-N-((3-((1,1-dioxidothiomorpholino)methyl)-5-nitro-3,4-dihydro-2H-benzo[b][1,4]oxazin-7-yl)sulfonyl)benzamide], the figures for the pIC50 in the assay on DOHH2 cells and in the assay on RS4;11 cells were 7.32 and 7.44, respectively.

In the case of `C[C@H]1COCCN1C[C@@H]1COc2cc(S(=O)(=O)NC(=O)c3ccc(N4CCN(CC5=C(c6ccc(Cl)cc6)CC(C)(C)CC5)CC4)cc3Oc3cnc4[nH]ccc4c3)cc([N+](=O)[O-])c2N1` [Example 2-80, 2-((1H-pyrrolo[2,3-b]pyridin-5-yl)oxy)-4-(4-((4′-chloro-5,5-dimethyl-3,4,5,6-tetrahydro-[1,1′-biphenyl]-2-yl)methyl)piperazin-1-yl)-N-(((R)-3-(((S)-3-methylmorpholino)meth-yl)-5-nitro-3,4-dihydro-2H-benzo[b][1,4]oxazin-7-yl)sulfonyl)benzamide], the pIC50 was 7.31 with DOHH2 cells and 8.15 in the assay with RS4;11 cells.
